Results on three compounds are retold here after patent US20230157308A1, “PERMEABILIZED MICROBIAL CELL CATALYSTS” (DANMARKS TEKNISKE UNIVERSITET, priority 2020, published 2023).

Assay [1] deals with S. thermophilus CS1980 cells. Description: Lactose hydrolysis by permeabilized S. thermophilus CS1980 cells. It is filed as cell-based, Streptococcus thermophilus. As to conditions: for effectiveness in cell permeabilization: 100 mg/L agent, 100 mg/l S. thermophilus cells, POM buffer. The protocol: S. thermophilus strains were grown in 500-ml Erlenmeyer flasks containing 200 mL of medium at 37° C. for 16 h without agitation. 2 mL of an overnight culture was used as inoculum. Cells were collected by centrifugation at 10,000×g for 10 min at 4° C., washed once with sterile POM buffer (50 mM K2HPO4/KH2PO4, 1 mM MgCl2, pH 7.4) and finally re-suspended in POM buffer to an optical density (OD600) of 0.3, corresponding to approximately 0.1 g/L (dry weight basis). For permeabilization, cell suspensions were dispensed into sterile tubes (1 mL per tube) and centrifuged in a microcentrifuge at 10,000×g for 5 min at 4° C. After decanting the supernatants, cell pellets were resuspended in 1 mL POM buffer containing different concentrations (10 mg/l and 100 mg/l) of monolaurin (Toronto Research Chemicals, Toronto, Canada), and were maintained for 10 min at 28° C. Non permeabilized cells in POM buffer were used as control. 100 mg/l of monomyristin was also tested as premeabilization agent. The cells were resuspended in POM buffered lactose (50 g/L) solution. The hydrolysis was carried out at 50° C. for 2 h. The concentration of lactose, glucose and galactose was determined on an Ultimate 3000 high-performance liquid chromatography (HPLC) system (Dionex) equipped with an Aminex HPX-87H column (Bio-Rad) and a Shodex RI-101 detector (Showa Denko K.K.). The column oven temperature was set to 60° C., and the mobile phase consisted of 5 mM H2SO4. The flow rate used was 0.5 mL/min.

For assay [2], the system named is S. thermophilus CS1980. Briefly: Lactose hydrolysis: monolaurin- versus ethanol-permeabilized cells. It is filed as cell-based, Streptococcus thermophilus. As to conditions: for stability of the whole-cell catalyst: 100 μg/ml monolaurin or 45% (v/v) ethanol, 10 min at 28° C. The protocol:
S. thermophilus CS1980 was permeabilized for 10 minutes at 28° C. using (i) 100 μg/ml monolaurin in POM buffer or (ii) 45% (v/v) ethanol for 10 minutes, or (iii) not permeabilized (control). Hydrolysis of lactose in POM buffer (50 g/l lactose) at 50° C. was carried out at a cell concentration of approximately 100 mg/l.

Assay [3] has as its system Lactococcus lactis biovar. diacetylactis RD1M5 cells. Description: Acetoin production from pyruvate by permeabilized RD1M5 cells. It is filed as cell-based. The note with it: 100 mg/L monolaurin, 20 min at 30° C.; 700 mg/L cells, 100 mM pyruvate, 1 h. As to the method:
Lactococcus lactis biovar. diacetylactis RD1M5 was permeabilized as described in example 1.2, using 100 mg/L monolaurin for 20 min at 30° C. 700 mg/L cells were suspended in POM buffer solution with 100 mM pyruvate. After 1 h, the cells were removed and the supernatant was used to quantify the acetoin concentration. Quantification of lactose, lactate, acetoin, and citrate were carried out using an Ultimate high-performance liquid chromatography system equipped with a Aminex HPX-87H column (300×7.8 mm column) (Bio-Rad, Hercules, USA) and a Shodex RI-101 refractive index detector (Showa Denko K.K., Tokyo, Japan). The mobile phase was 5 mM H2SO4 with a flow rate of 0.5 mL/min and the column oven temperature was maintained at 60° C.

Assay [4] has as its system S. thermophilus CS1980. Briefly: Permeabilization of S. thermophilus CS1980 at different temperatures. It counts as cell-based, Streptococcus thermophilus. As to conditions: permeabilization temperatures 20-50° C. As to the method:
[…] Controls are prepared without addition of monolaurin in the permeabilization step. Hydrolysis of lactose by monolaurin-treated cells is carried out in a POM buffered solution.

The structures appear in SMILES notation.

Take `CCCCCCCCCCCCCC(=O)OCC(O)CO` (stereo not drawn) [Monomyristin, monomyristin]: the “effectiveness in cell permeabilization” value in assay [1] is given as “same effectiveness in cell permeabilization as monolaurin”.

Regarding `CCO` [ethanol, reference compound], the “stability of the whole-cell catalyst” value in assay [2] was “compromised the stability of the whole-cell catalyst”.

Consider `CCCCCCCCCCCC(=O)OCC(O)CO` (stereo not drawn) [monolaurin], for which the “effectiveness in cell permeabilization” value in assay [1] is on record as “efficiently permeabilizes the cells”. In addition, the “lactose hydrolyzed by permeabilized cells” value in assay [1] (cells permeabilized 10 min at 28° C., 50 g/L lactose, 2 hours at 50° C., 100 mg/L cells (dry weight)) is listed as 55%. For the same compound, the “hydrolysis by cells treated with too low monolaurin concentration” value in assay [1] (too low monolaurin concentration (10 mg/l tested), 50 g/L lactose, 50° C.) is “neglectable”. The “acetoin produced from pyruvate compared to non-treated cells” value in assay [3] is “much higher concentrations of acetoin”. In assay [4], the “efficiency of permeabilization over temperature range” value is “equally efficient”. Besides, the “stability of the whole-cell catalyst” value in assay [2] is recorded as “higher stability”. For the same compound, in assay [2] (permeabilized 10 min at 28° C., 100 μg/ml monolaurin, 50 g/l lactose, 50° C., about 100 mg/l cells), the “lactose conversion by permeabilized cells” value is on record as “perform better than the control as well as the ethanol-permeabilized cells”.
